Measurements from patent US11684606B2, “Methods of treating generalized pustular psoriasis with an antagonist of CCR6 or CXCR2” (CHEMOCENTRYX, INC., priority 2018, dated 2023).

Legend:
[1] = test system: IL-36α-injected ears of Balb/c mice; assay: Mouse model of IL-36-induced ear thickening (GPP model); type: in vivo; conditions: intradermal IL36 mouse model (Example 1)
Protocol: (§1) For in vivo dosing, mice were dosed subcutaneously with Compound 1.136 once daily (s.c. q.d. in 1% HPMC) at 90 mg/kg unless stated otherwise, starting at day 0 of a study. The in vivo dose was predicted based on in vitro potency and the pharmacokinetic response to a single dose in mice. The minimum antagonist concentration (at trough) to fully cover a gradient-sensing chemoattractant receptor has been determined to correspond with the IC90 concentration (Schall, T. J., and A. E. Proudfoot. 2011. Overcoming hurdles in developing successful drugs targeting chemokine receptors. Nat Rev Immunol 11: 355-363).
Mouse model of IL-36-induced ear thickening. The right ear of 8-week old Balb/c mice received intradermal injections of recombinant murine IL-36α (150 μg per mouse formulated in PBS; BioLegend) every day for 5 days. Intradermal injections of PBS were given to the left ear as a control. Ear thickness was measured prior to start of study and each day thoughout the study using a digital micrometer. The imiquimod model of psoriasiform dermatitis was performed as previously described (Campbell Jet al. J Immunol. 2017; 199(9):3129-36. van der Fits et al. J Immunol 2009; 182(9):5836-45). Briefly, 5% Imiquimod (Fougera®) was applied daily to the shaved and depilated backs of Balb/c mice for up to 4 days. Control mice were treated with an application of Vaseline. Erythema, desquamation, and skin thickening were scored independently on a scale from 0 to 4 where 0=no disease; 1=slight disease; 2=moderate disease; 3=marked disease; 4=very marked disease (Campbell J et al. J Immunol. 2017; 199(9):3129-36. van der Fits et al. J Immunol 2009; 182(9):5836-45). Skin from the backs of mice was excised at the end of the study and processed for flow cytometry analysis,
Mouse anti-IL-17RA. (R&D Systems) was dosed as a positive control at 200-500 μg per mouse, i.p., q.d.

[2] = test system: imiquimod-treated skin of Balb/c mice; conditions: reported in a previous study; cited from earlier work
[3] = test system: CD4 T cells, neutrophils and inflammatory dendritic cells within IL-36-treated skin; assay: Flow cytometry of leukocytes accumulating in IL-36-treated skin; type: in vivo, mouse; conditions: intradermal IL36 mouse model (Example 1)
Protocol: as §1
Flow cytometry of leukocytes. Ears or excised skin samples were digested in collagenase A and 1 U/ml DNAse I with agitation for 30 min at 37° C. Cells were then dislodged from skin, filtered through a […] sieve, washed and re-suspended in FACS buffer (PBS with 10% FBS) for analysis.
Directly conjugated Monoclonal antibodies were from R&D Systems (Minneapolis, Minn.), BioLegend (San Diego, Calif.), or eBioscience/ThermoFisher (San Diego, Calif.). CD45.2 (104) in AlexaFluor488, Ly6C (HK1.4) in PE, CD90.2 (30-H12) in Per CP-Cy5.5, TCRVγ4 (UC3-10A6) in PE-Cy7, TCRβ (H57-597) in APC, CD4 (GK1.5) in APC-eFluor-780, TCRγδ (GL3) in BV-421, LIVE/DEAD fixable Aqua stain (Molecular Probes, Eugene, Oreg.), CD11c (N418) in BV650, Ly6G (1A4) in BV711 and CD11b (M1/70) in BV785. Flow cytometry data were acquired with a Fortessa (BD Biosciences) cytometer and analyzed using FlowJo v10.2

CC(C)(C)[C@@H](Nc1c(Nc2ccc(Cl)c3c2C(=O)NC3)c(=O)c1=O)c1ccc(Cl)o1 [Compound 1.129]
IL36-induced inflammation [1]: reduces IL36-induced inflammation
Inflammation in topical imiquimod-induced model of plaque psoriasis [2]: ameliorates inflammation
Accumulation of CD4+αβ T cell population in IL36-inflamed skin [3]: preventing accumulation
